According to PMC11277489, “Novel Piperazine Derivatives of Vindoline as Anticancer Agents” (International Journal of Molecular Sciences, 2024):

How the values were obtained:
A549/ATCC = experiment: NCI60 one-dose screen (10 μM), Non-small Cell Lung Cancer; format: cell-based; conditions: Homo sapiens; 10 μM; A549/ATCC, Non-small Cell Lung Cancer; read-out: Growth percent rate
MCF7 = experiment: NCI60 one-dose screen (10 μM), Breast Cancer; format: cell-based; conditions: Homo sapiens; 10 μM; MCF7, Breast Cancer; read-out: Growth percent rate
SF-539 = experiment: NCI60 one-dose screen (10 μM), CNS Cancer; format: cell-based, human
SK-MEL-2 = experiment: NCI60 one-dose screen (10 μM), Melanoma; format: cell-based; conditions: Homo sapiens; 10 μM; SK-MEL-2, Melanoma; read-out: Growth percent rate
TK-10 = experiment: NCI60 one-dose screen (10 μM), Renal Cancer; format: cell-based; conditions: Homo sapiens; 10 μM; TK-10, Renal Cancer; read-out: Growth percent rate
SW-620 = experiment: NCI60 one-dose screen (10 μM), Colon Cancer; format: cell-based; conditions: Homo sapiens; 10 μM; SW-620, Colon Cancer; read-out: Growth percent rate
HS 578T = experiment: NCI60 one-dose screen (10 μM), Breast Cancer; format: cell-based; conditions: Homo sapiens; 10 μM; HS 578T, Breast Cancer; read-out: Growth percent rate
M14 = experiment: NCI60 one-dose screen (10 μM), Melanoma; format: cell-based; conditions: Homo sapiens; 10 μM; M14, Melanoma; read-out: Growth percent rate
NCI-H460 = experiment: NCI60 one-dose screen (10 μM), Non-small Cell Lung Cancer; format: cell-based; conditions: Homo sapiens; 10 μM; NCI-H460, Non-small Cell Lung Cancer; read-out: Growth percent rate
HL-60(TB) = experiment: NCI60 one-dose screen (10 μM), Leukemia; format: cell-based; conditions: Homo sapiens; 10 μM; HL-60(TB), Leukemia; read-out: Growth percent rate
UACC-257 = experiment: NCI60 one-dose screen (10 μM), Melanoma; format: cell-based; conditions: Homo sapiens; 10 μM; UACC-257, Melanoma; read-out: Growth percent rate
SNB-75 = experiment: NCI60 one-dose screen (10 μM), CNS Cancer; format: cell-based, human; conditions: Homo sapiens; 10 μM; SNB-75, CNS Cancer; read-out: Growth percent rate
HCT-116 = experiment: NCI60 one-dose screen (10 μM), Colon Cancer; format: cell-based; conditions: Homo sapiens; 10 μM; HCT-116, Colon Cancer; read-out: Growth percent rate
NCI-H522 = experiment: NCI60 one-dose screen (10 μM), Non-small Cell Lung Cancer; format: cell-based; conditions: Homo sapiens; 10 μM; NCI-H522, Non-small Cell Lung Cancer; read-out: Growth percent rate
MOLT-4 = experiment: NCI60 one-dose screen (10 μM), Leukemia; format: cell-based, human; conditions: Homo sapiens; 10 μM; MOLT-4, Leukemia; read-out: Growth percent rate
OVCAR-3 = experiment: NCI60 one-dose screen (10 μM), Ovarian Cancer; format: cell-based; conditions: Homo sapiens; 10 μM; OVCAR-3, Ovarian Cancer; read-out: Growth percent rate
K-562 = experiment: NCI60 one-dose screen (10 μM), Leukemia; format: cell-based; conditions: Homo sapiens, K562; 10 μM; K-562, Leukemia; read-out: Growth percent rate
A498 = experiment: NCI60 one-dose screen (10 μM), Renal Cancer; format: cell-based; conditions: Homo sapiens; 10 μM; A498, Renal Cancer; read-out: Growth percent rate
HT29 = experiment: NCI60 one-dose screen (10 μM), Colon Cancer; format: cell-based; conditions: Homo sapiens, HT-29; 10 μM; HT29, Colon Cancer; read-out: Growth percent rate
SN12C = experiment: NCI60 one-dose screen (10 μM), Renal Cancer; format: cell-based; conditions: Homo sapiens, 10 μM, Renal Cancer, read-out: Growth percent rate
NCI-H23 = experiment: NCI60 one-dose screen (10 μM), Non-small Cell Lung Cancer; format: cell-based; conditions: Homo sapiens; 10 μM; NCI-H23, Non-small Cell Lung Cancer; read-out: Growth percent rate
HCC-2998 = experiment: NCI60 one-dose screen (10 μM), Colon Cancer; format: cell-based; conditions: Homo sapiens; 10 μM; HCC-2998, Colon Cancer; read-out: Growth percent rate
MALME-3M = experiment: NCI60 one-dose screen (10 μM), Melanoma; format: cell-based; conditions: Homo sapiens; 10 μM; MALME-3M, Melanoma; read-out: Growth percent rate
ACHN = experiment: NCI60 one-dose screen (10 μM), Renal Cancer; format: cell-based; conditions: Homo sapiens, 10 μM, Renal Cancer, read-out: Growth percent rate
OVCAR-8 = experiment: NCI60 one-dose screen (10 μM), Ovarian Cancer; format: cell-based; conditions: Homo sapiens; 10 μM; OVCAR-8, Ovarian Cancer; read-out: Growth percent rate
CCRF-CEM = experiment: NCI60 one-dose screen (10 μM), Leukemia; format: cell-based; conditions: Homo sapiens, 10 μM, Leukemia, read-out: Growth percent rate
RPMI-8226 = experiment: NCI60 one-dose screen (10 μM), Leukemia; format: cell-based; conditions: Homo sapiens; 10 μM; RPMI-8226, Leukemia; read-out: Growth percent rate
SK-MEL-5 = experiment: NCI60 one-dose screen (10 μM), Melanoma; format: cell-based, human
HCT-15 = experiment: NCI60 one-dose screen (10 μM), Colon Cancer; format: cell-based; conditions: Homo sapiens; 10 μM; HCT-15, Colon Cancer; read-out: Growth percent rate
KM12 = experiment: NCI60 one-dose screen (10 μM), Colon Cancer; format: cell-based, human; conditions: Homo sapiens; 10 μM; KM12, Colon Cancer; read-out: Growth percent rate
MDA-MB-435 = experiment: NCI60 one-dose screen (10 μM), Melanoma; format: cell-based; conditions: Homo sapiens; 10 μM; MDA-MB-435, Melanoma; read-out: Growth percent rate
786–0 = experiment: NCI60 one-dose screen (10 μM), Renal Cancer; format: cell-based; conditions: Homo sapiens; 10 μM; 786-0, Renal Cancer; read-out: Growth percent rate
SF-295 = experiment: NCI60 one-dose screen (10 μM), CNS Cancer; format: cell-based; conditions: Homo sapiens; 10 μM; SF-295, CNS Cancer; read-out: Growth percent rate
SK-MEL-28 = experiment: NCI60 one-dose screen (10 μM), Melanoma; format: cell-based; conditions: Homo sapiens; 10 μM; SK-MEL-28, Melanoma; read-out: Growth percent rate
NCI-H322M = experiment: NCI60 one-dose screen (10 μM), Non-small Cell Lung Cancer; format: cell-based; conditions: Homo sapiens, 10 μM, Non-small Cell Lung Cancer, read-out: Growth percent rate
CAKI-1 = experiment: NCI60 one-dose screen (10 μM), Renal Cancer; format: cell-based; conditions: Homo sapiens; 10 μM; CAKI-1, Renal Cancer; read-out: Growth percent rate
COLO 205 = experiment: NCI60 one-dose screen (10 μM), Colon Cancer; format: cell-based, human
U251 = experiment: NCI60 one-dose screen (10 μM), CNS Cancer; format: cell-based; conditions: Homo sapiens, U-251; 10 μM; U251, CNS Cancer; read-out: Growth percent rate
HOP-62 = experiment: NCI60 one-dose screen (10 μM), Non-small Cell Lung Cancer; format: cell-based; conditions: Homo sapiens; 10 μM; HOP-62, Non-small Cell Lung Cancer; read-out: Growth percent rate
SNB-19 = experiment: NCI60 one-dose screen (10 μM), CNS Cancer; format: cell-based; conditions: Homo sapiens; 10 μM; SNB-19, CNS Cancer; read-out: Growth percent rate
IGROV1 = experiment: NCI60 one-dose screen (10 μM), Ovarian Cancer; format: cell-based; conditions: Homo sapiens, IGROV-1; 10 μM; IGROV1, Ovarian Cancer; read-out: Growth percent rate
EKVX = experiment: NCI60 one-dose screen (10 μM), Non-small Cell Lung Cancer; format: cell-based; conditions: Homo sapiens, 10 μM, Non-small Cell Lung Cancer, read-out: Growth percent rate

## CC[C@]12C=CCN3CC[C@@]4(c5ccc(OC)cc5N(C)[C@H]4[C@@](O)(C(=O)OC)[C@@H]1OC(=O)CCCN1CCN(c4ccc(C(F)(F)F)cc4)CC1)[C@@H]32 [Compound 22]
A549/ATCC
  activity at 10 µM: 4.54%
MCF7
  activity at 10 µM: -51.5%
SF-539; 10 μM one-dose, SF-539 CNS cancer, negative = lethality
  growth percent rate: −96.98%
SF-539; Homo sapiens, 10 μM, SF-539, CNS Cancer, read-out: Growth percent rate
  activity at 10 µM: -97%
SK-MEL-2
  activity at 10 µM: -93.9%
TK-10
  activity at 10 µM: -48.5%
SW-620
  activity at 10 µM: 7.47%
HS 578T
  activity at 10 µM: -46.2%
M14
  activity at 10 µM: -75.5%
NCI-H460
  activity at 10 µM: -36.9%
HL-60(TB)
  activity at 10 µM: 7.9%
UACC-257
  activity at 10 µM: -79.3%
SNB-75
  activity at 10 µM: 2.76%
HCT-116
  activity at 10 µM: -25.6%
NCI-H522
  activity at 10 µM: -86%
MOLT-4
  activity at 10 µM: 9.3%
OVCAR-3
  activity at 10 µM: -71.5%
K-562
  activity at 10 µM: 6.96%
A498
  activity at 10 µM: -15.1%
HT29
  activity at 10 µM: -70.3%
SN12C
  activity at 10 µM: -66.4%
NCI-H23
  activity at 10 µM: -61.1%
HCC-2998
  activity at 10 µM: -82.3%
MALME-3M
  activity at 10 µM: -90.3%
ACHN
  activity at 10 µM: -20.3%
OVCAR-8
  activity at 10 µM: -47.4%
CCRF-CEM
  activity at 10 µM: 3.97%
RPMI-8226
  activity at 10 µM: -9.29%
SK-MEL-5; 10 μM one-dose, SK-MEL-5 melanoma, negative = lethality
  growth percent rate: −98.54%
SK-MEL-5; Homo sapiens, 10 μM, SK-MEL-5, Melanoma, read-out: Growth percent rate
  activity at 10 µM: -98.5%
HCT-15
  activity at 10 µM: -82.9%
KM12
  activity at 10 µM: -70%
MDA-MB-435
  activity at 10 µM: -78.9%
786–0
  activity at 10 µM: -72.7%
SF-295
  activity at 10 µM: -84.8%
SK-MEL-28
  activity at 10 µM: -92.1%
NCI-H322M
  activity at 10 µM: 50.5%
CAKI-1
  activity at 10 µM: -65%
COLO 205; 10 μM one-dose, COLO-205 colon cancer, negative = lethality
  growth percent rate: −93.46%
COLO 205; Homo sapiens, 10 μM, COLO 205, Colon Cancer, read-out: Growth percent rate
  activity at 10 µM: -93.5%
U251
  activity at 10 µM: -88.4%
HOP-62
  activity at 10 µM: 0.03%
SNB-19
  activity at 10 µM: -3.08%
IGROV1
  activity at 10 µM: -28.9%
EKVX
  activity at 10 µM: -49.9%
